20 compounds from US20100120810A1, “COMPOUNDS AND METHODS FOR MODULATING RHO GTPASES” (priority 2007, published 2010) can be followed below.

In one experiment the target is T1, Cdc42 (Homo sapiens, UniProt P60953).
T1 construct: GST (N); made in house; host or cells: E. coli BL21 Codon+RIL
The experiment is described as follows: Nucleotide binding assay: BODIPY-GTP binding to Cdc42. Format: biochemical. To be noted: for inhibition at 50 µM: read-out: Cdc42 % inhibition of BODIPY-GTP binding; for IC50: dose-response study. Here is the method:
(§1) Fluorescence of GTP analog BODIPY-GTP increases when it binds to small G proteins. This property was used to assess ability of compounds to inhibit nucleotide binding to Rac1, Rac1b and Cdc42. 2 μM GST-Rac1 and 6 μg His6-Tiam1-DH/PH were diluted in a buffer containing 20 mM Tris, 50 mM NaCl, and 1 mM MgCl2. This mixture was loaded in a 96-well plate. Fluorescence recording were started (λEx: 485 nm; λEm: 538 nm) using a spectrofluorimeter (Fluoroskan; Thermolab Systems). Assay was initiated by the addition of 2 μM BODIPY-GTP with or without various doses of test compound. Fluorescence values were recorded, and data were processed as follows: background fluorescence (unbound BODIPY-GTP) was retrieved from fluorescence values.
(§2) This assay allows determining whether compounds can inhibit the binding of a fluorescent nucleotide to recombinant small G proteins of interest. The effect of various alkaloid compounds on binding of BODIPY-GTP to Rac1 activated by DH/PH domain of Guanine nucleotide Exchange Factor Tiam1 (Rac1/Tiam1), Rac1b and Cdc42 is described below.

A further experiment concerns HCT116 cell line. In words: Soft agar assay (anchorage-independent colony formation). The class given is cell-based. Conditions: HCT116, 7 days. From the text:
Colony formation in soft agar is the most widely used assay to evaluate anchorage-independent growth potential and represents one of the best in vitro assays that correlates strongly with in vivo tumorigenic cell growth potential. Normal cells require adherence and spreading onto a solid substratum in order to remain viable and proliferate. In contrast, cancer cell line HCT116 (ATCC clone number CCL-247) lost this requirement and therefore can form proliferating colonies of cells when suspended in a semisolid agar medium. The assay was performed in 24-well plates, using duplicates wells for each compound concentration. Briefly, a 0.5% Bacto™ Agar (BD Biosciences) bottom layer (prepared in HCT116 complete growth medium supplemented or not with the tested compound) was poured first and allowed to harden (0.3 ml per well). HCT116 were trypsinized to generate a uniform single cell suspension. Five×10^3 cells per well were resuspended in 0.3% agar supplemented with complete growth medium, with or without several compound concentrations to form the top layer (0.3 ml per well). HCT116 were allowed to grow for 7 days in these conditions and then analysed for colonies formation. Analysis was performed from pictures taken under a microscope that are representative from 2 different fields of the well. For each field, 2 different focal plans were taken and were merged using ImageJ software. The number of colonies were scored and colonies' size were measured. IC50 were determined for the number and size of colonies using GraphPad Prism (GraphPad) software. Data are mean values of 2 to 3 independent experiments.

The target of experiment [1] is T2, Rac1 activated by DH/PH domain of Guanine nucleotide Exchange Factor Tiam1 (Rac1/Tiam1) (Homo sapiens, UniProt P63000).
T2 construct: made in house; host or cells: E. coli BL21 Codon+RIL
In words: Nucleotide binding assay: BODIPY-GTP binding to Rac1 activated by Tiam1 DH/PH. The class given is biochemical. Conditions: for inhibition at 50 µM: read-out: Rac1 % inhibition of BODIPY-GTP binding. Here is the method: as §1, §2

In another experiment the target is T3, Rac1b (Homo sapiens, UniProt P63000).
T3 construct: GST (N); made in house; host or cells: E. coli BL21 Codon+RIL
In words: Nucleotide binding assay: BODIPY-GTP binding to Rac1b. The class given is biochemical. Conditions: for IC50: dose-response study; for inhibition at 50 µM: read-out: Rac1b % inhibition of BODIPY-GTP binding. Here is the method: as §1, §2

Experiment [2] addresses T4, HEK293 cells overexpressing human Rac1b (Homo sapiens, UniProt P63000).
T4 construct: expressed in transfected cells; host or cells: HEK293
In words: Rac1b activation assay (G-LISA). The class given is cell-based. As for the experimental part:
Rac1b activation assay: HEK293 cells overexpressing human Rac1b were plated in 100 mm diameter dishes and grown for 5 days in MEM medium supplemented with 10% FBS, L-Glutamine and antibiotics. Cells were then treated with 50 μM of compounds or the solvent for 5 minutes, and the GTP loading of Rac1b was measured using a Rac Activation Assay Kit (Cytoskeleton) according to manufacturer's recommendations. Briefly, this assay uses a 96-well plate coated with RBD domain of Rho-family effector proteins. […] The signal is then developed with OPD reagent.

[3] abbreviates: Homo sapiens, HCT-116, 168 h, read-out: Soft agar assay IC50, Clone Number.
[4] abbreviates: Homo sapiens, HCT-116, 168 h, read-out: Soft agar assay IC50, Clone Size.
[5] abbreviates: final concentration of 50 μM, Rac1/Tiam1.
[6] abbreviates: HEK293, 50 μM, 5 minutes, GTP loading of Rac1b, read-out: G-LISA % inhibition @ 50 μM.

Counter-ions that a name gives are not always drawn. Like-named read-outs stand apart in the source and are kept apart here. Some results are limits rather than exact numbers.

T1 sequence (P60953 whole entry, species assumed): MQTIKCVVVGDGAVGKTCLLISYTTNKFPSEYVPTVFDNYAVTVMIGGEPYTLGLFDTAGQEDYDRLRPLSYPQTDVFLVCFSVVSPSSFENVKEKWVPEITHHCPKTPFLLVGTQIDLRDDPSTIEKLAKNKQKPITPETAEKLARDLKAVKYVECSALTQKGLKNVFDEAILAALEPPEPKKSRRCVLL

The inhibition is the change of the read-out against control, counted positive when it falls. The IC50 is the concentration needed to halve the response being measured. Take `COc1cc2cc(-c3ccc(O)c(O)c3)nc(C)c2cc1OC` [Compound 26, 4-(6,7-Dimethoxy-1-methylisoquinolin-3-yl)benzene-1,2-diol hydrochloride]: at Cdc42 (final concentration of 50 μM), the inhibition at 50 µM worked out at 15 ± 1%. Besides, the IC50 in the experiment on HCT116 cell line (setting [3]) was 14.8 ± 3.3 µM; in the experiment on HCT116 cell line (setting [4]) it was 8.5 ± 0.9 µM.
On to `COc1ccc2cc3[n+](cc2c1OC)CCc1cc(O)c(O)cc1-3` [Compound 4, 9,10-dimethoxy-5,6-dihydro-isoquino[3,2-a]isoquinolinylium-2,3-diol chloride], for which the 50% inhibitory concentration (IC50) in experiment [1] (dose-response study) was determined as 58.6 ± 16.9 µM; on Rac1b, 23.8 ± 2.9 µM. The inhibition at 50 µM turned out to be 39 ± 2% in experiment [1]; 54 ± 2% at Rac1b; 31 ± 9% on Cdc42 (final concentration of 50 μM); 30 ± 5% in experiment [2] (HEK293, read-out: G-LISA % inhibition @ 50 μM).
`COc1cc2cc(-c3cccc(C(C)=O)c3)nc(C)c2cc1OC` [Compound 24, 1-(3-(6,7-Dimethoxy-1-methylisoquinolin-3-yl)phenyl)ethanone hydrochloride]: the inhibition at 50 µM in experiment [1] (setting [5]) stood at 18 ± 3%; at Rac1b (final concentration of 50 μM), 27 ± 2%; at Cdc42 (final concentration of 50 μM), 7 ± 2%; in experiment [2] (setting [6]) it was 19 ± 5%.
Turning to `Oc1cc2c(cc1O)C1Cc3ccc(O)c(O)c3CN1CC2` (racemic) [Compound 16, (±)-5,8,13,13a-Tetrahydro-6H-isoquino[3,2-a]isoquinolinylium-2,3,9,10-tetraol hydrochloride], at Cdc42, the inhibition at 50 µM was 4 ± 6%. The concentration for half-maximal inhibition (IC50) was determined as 6.4 ± 1.3 µM with HCT116 cell line (setting [3]) and 6.2 ± 0.4 µM in the experiment with HCT116 cell line (setting [4]).
For `COc1ccc2c(c[n+](C)c3c4cc(O)c(O)cc4ccc23)c1OC` [Compound 51, 2,3-Dihydroxy-7,8-dimethoxy-5-methylbenzo[c]phenanthridinium chloride], the concentration for half-maximal inhibition (IC50) is 78 ± 3 µM at Cdc42, over 50 µM in the experiment with HCT116 cell line (setting [3]) and 11.4 ± 1.9 µM with HCT116 cell line (setting [4]). On Cdc42 (final concentration of 50 μM), the inhibition at 50 µM was found to be 38 ± 2%.
Consider `COc1cc2cc(-c3cccc(NS(C)(=O)=O)c3)nc(C)c2cc1OC` [Compound 30, N-(3-(6,7-Dimethoxy-1-methylisoquinolin-3-yl)phenyl)methanesulfonamide hydrochloride], for which the inhibition at 50 µM in experiment [1] (setting [5]) is 9 ± 3%; on Rac1b (final concentration of 50 μM), 16 ± 2%; on Cdc42 (final concentration of 50 μM), 4 ± 4%; in experiment [2] (setting [6]), 12 ± 2%.
For `C[n+]1cc2c(O)c(O)ccc2c2ccc3cc(O)c(O)cc3c21` [Compound 52, 2,3,7,8-Tetrahydroxy-5-methylbenzo[c]phenanthridinium chloride], the concentration for half-maximal inhibition (IC50) at Cdc42 was 22 ± 2 µM; in the experiment on HCT116 cell line (setting [3]) it was 9.8 ± 1.3 µM; with HCT116 cell line (setting [4]), 9.5 ± 0.4 µM. In addition, the inhibition at 50 µM on Cdc42 worked out at 73 ± 4%.
Turning to `COc1cc2cc(-c3ccc4c(c3)OCO4)[n+](C)c(C)c2cc1OC` [Compound 22, 3-(Benzo[d][1,3]dioxol-5-yl)-6,7-dimethoxy-1,2-dimethylisoquinolinium chloride], the results for the inhibition at 50 µM (in experiment [1] (setting [5]); at Rac1b (final concentration of 50 μM); on Cdc42 (final concentration of 50 μM)) were 12 ± 2%, 18 ± 2% and 14 ± 3%, respectively.
In the case of `COc1ccc(Cc2nccc3cc(OC)c(OC)cc23)cc1OC` [Compound 9, 1-(3,4-dimethoxybenzyl)-6,7-dimethoxyisoquinoline hydrochloride, reference compound], the values for the inhibition at 50 µM (in experiment [1]; at Rac1b; at Cdc42) were 1 ± 2%, 5 ± 2% and 2 ± 2%, respectively.
Regarding `COc1ccc(-c2cc3cc(OC)c(OC)cc3c(C)n2)cc1` [Compound 40, 6,7-Dimethoxy-3-(4-methoxyphenyl)-1-methylisoquinolinylium chloride], the inhibition at 50 µM in experiment [1] (setting [5]) is 15 ± 3%; on Rac1b (final concentration of 50 μM), 17 ± 3%; at Cdc42 (final concentration of 50 μM) it was 14 ± 1%.
In the case of `COc1cc2cc(-c3cccnc3)nc(C)c2cc1OC` [Compound 36, 6,7-Dimethoxy-1-methyl-3-(pyridin-3-yl)isoquinoline dihydrochloride], the results for the inhibition at 50 µM (in experiment [1] (setting [5]); on Rac1b (final concentration of 50 μM); at Cdc42 (final concentration of 50 μM)) were 10 ± 3%, 12 ± 3% and -4 ± 13%, respectively.
As to `COc1cc2cc(-c3ccc4ccccc4c3)nc(C)c2cc1OC.Cl` [Compound 41, 6,7-Dimethoxy-1-methyl-3-(naphthalen-2-yl)isoquinolinylium chloride], the “Cdc42 % inhibition of BODIPY-GTP binding” value at Cdc42 (final concentration of 50 μM, 50 µM) was 52 ± 4%. The IC50 in the experiment with HCT116 cell line (setting [3]) was 70.7 ± 5.9 µM; in the experiment with HCT116 cell line (setting [4]), 44.4 ± 4.5 µM.
`COc1ccc(-c2cc3cc(OC)c(OC)cc3c(C)n2)cn1` [Compound 35, 6,7-Dimethoxy-3-(6-methoxypyridin-3-yl)-1-methylisoquinoline dimethanesulfonate]: the inhibition at 50 µM in experiment [1] (setting [5]) turned out to be 6 ± 4%; on Rac1b (final concentration of 50 μM) it was 6 ± 2%; on Cdc42 (final concentration of 50 μM) it was 11 ± 2%.
Turning to `COc1cc2cc(-c3ccccc3)[n+](C)cc2cc1OC` [Compound 50, 6,7-Dimethoxy-2-methyl-3-phenylisoquinolinium chloride], the figures for the inhibition at 50 µM (in experiment [1] (setting [5]); on Rac1b (final concentration of 50 μM); on Cdc42 (final concentration of 50 μM)) were 3 ± 5%, 10 ± 5% and 10 ± 6%, respectively.
For `COc1cc2c(cc1OC)CN(Cc1cccc(OC)c1OC)CC2` [Compound 7, 2-(2,3-Dimethoxybenzyl)-6,7-dimethoxy-1,2,3,4-tetrahydroisoquinoline hydrochloride], the inhibition at 50 µM in experiment [1] (setting [5]) is 0%; at Rac1b (final concentration of 50 μM), 6 ± 3%; on Cdc42 (final concentration of 50 μM), -1 ± 1%.
In the case of `Cc1c2cc(O)c(O)cc2cc2c3cc(O)c(O)cc3cc[n+]12` [Compound 15, 8-Methyl-isoquino[3,2-a]isoquinolinylium-2,3,10,11-tetraol chloride], the inhibition at 50 µM was 63 ± 4% in experiment [1] (setting [5]), 72 ± 4% on Rac1b (final concentration of 50 μM) and 70 ± 3% on Cdc42 (final concentration of 50 μM). This compound also showed a half-inhibitory concentration (IC50) at Rac1b of 13.2 ± 4.3 µM.
On to `O=c1cc(CN2CCOCC2)occ1OCCCCCSc1ccnc2cc(C(F)(F)F)ccc12` [EHT 1864, reference compound], for which the IC50 is 57.5 ± 4.5 µM in the experiment with HCT116 cell line (read-out: Soft agar assay IC50, Clone Number) and 19.5 ± 2.5 µM with HCT116 cell line (read-out: Soft agar assay IC50, Clone Size).
In the case of `COc1ccc2c(c1OC)C(Cc1ccccc1)N1CCc3cc4c(cc3C1=C2)OCO4` (stereo not shown) [Compound 11, 8-benzyl-9,10-dimethoxy-5,8-dihydro-2H-6H-[1,3]dioxolo[4,5-g]isoquino[3,2-a]isoquinoline], the inhibition at 50 µM in experiment [1] (setting [5]) was -1 ± 2%; on Rac1b (final concentration of 50 μM), -2 ± 3%; at Cdc42 (final concentration of 50 μM), 1 ± 1%.
The corresponding values for `CCc1cc2c(cc1C1Cc3ccc(OC)c(OC)c3CN1C)OCO2` (racemic) [Compound 20, (±)-3-(6-Ethylbenzo[d][1,3]dioxol-5-yl)-7,8-dimethoxy-2-methyl-1,2,3,4-tetrahydroisoquinolinylium chloride] are 4 ± 4%, -6 ± 10% and 8 ± 3%.
With `COc1cc2cc(-c3cccc([N+](=O)[O-])c3)nc(C)c2cc1OC` [Compound 23, 6,7-Dimethoxy-1-methyl-3-(3-nitrophenyl)isoquinolinium chloride], the results for the inhibition at 50 µM (in experiment [1] (setting [5]); on Rac1b (final concentration of 50 μM); on Cdc42 (final concentration of 50 μM)) were 3 ± 4%, 10 ± 4% and 14 ± 3%, respectively.
